Experimental data as given in US9918972B2, “Treatment of leukemia with artemisinin derivatives and combinations with other antineoplastic agents” (UNIVERSITY OF MARYLAND, BALTIMORE, priority 2014, dated 2018).
Values joined by “and” are separate entries in the source; they are usually repeats but may differ in a detail not shown here. Equal entries are not always repeated. Marks after values point to notes of the source that are not given here.

Experiments:
[1] = tested on: MOLM14, Kasumi-1, KOPN8 and RCH-ACV leukemia cell lines; experiment: Kinase inhibitor drug combination screen, summary over the four leukemia cell lines; conditions: for No. Cell Lines: cell lines synergistically inhibited (>10% over Bliss) by drug 1 combined with AS and/or ART-838
Excerpt: (§1) Hits were ranked by the observed inhibition over the Bliss independence prediction.
(§2) Combinations with positive values for this Bliss difference were considered synergistic, values near zero, additive, and negative values, antagonistic.

KOPN8 = experiment: Kinase inhibitor drug combination screen (MTS, Bliss-independence analysis)
Excerpt: as §1, §2

RCH-ACV = experiment: as above
Excerpt: as §1, §2

MOLM14 = experiment: as above
Excerpt: as §1, §2

[2] = KOPN8, Drug 2 = ART-838 at approximate IC50, 48 h
[3] = Drug 2 = AS at approximate IC50, 48 h
[4] = MOLM14, Drug 2 = ART-838 at approximate IC50, 48 h
[5] = MOLM14, Drug 2 = AS at approximate IC50, 48 h
[6] = Drug 2 = ART-838 at approximate IC50, 48 h
[7] = KOPN8, Drug 2 = AS at approximate IC50, 48 h

CS(=O)(=O)CCNCc1ccc(-c2ccc3ncnc(Nc4ccc(OCc5cccc(F)c5)c(Cl)c4)c3c2)o1 [Lapatinib]
No. Cell Lines [1]: 2/4**

C[C@@H](Oc1cc(-c2cnn(C3CCNCC3)c2)cnc1N)c1c(Cl)ccc(F)c1Cl [Crizotinib]
fractional inhibition over Bliss prediction (KOPN8; [2]): KOPN8 (0.12)
fractional inhibition over Bliss prediction (RCH-ACV; [3]): RCH-ACV (0.13)
No. Cell Lines [1]: 2/4**

JAK Inhibitor I
fractional inhibition over Bliss prediction (MOLM14; [4]): 0.15
fractional inhibition over Bliss prediction (MOLM14; [5]): 0.44

CN1CCN(CCOc2cc(OC3CCOCC3)c3c(Nc4c(Cl)ccc5c4OCO5)ncnc3c2)CC1 [Saracatinib]
fractional inhibition over Bliss prediction (MOLM14; [4]): 0.21
fractional inhibition over Bliss prediction (MOLM14; [5]): 0.33

O=C(Nc1cccc(C(F)(F)F)c1)Nc1cc(S(=O)(=O)NC2CC2)ccc1-c1ccsc1 [AGI6780]
fractional inhibition over Bliss prediction (KOPN8; [2]): KOPN8 (0.17),
fractional inhibition over Bliss prediction (RCH-ACV; [6]): RCH-ACV (0.11)
No. Cell Lines [1]: 2/4**

Clc1ccc(Nc2nnc(Cc3ccncc3)c3ccccc23)cc1 [Vatalanib]
fractional inhibition over Bliss prediction (KOPN8; [2]): 0.12
fractional inhibition over Bliss prediction (KOPN8; [7]): 0.15

Cc1ccc(F)c(NC(=O)Nc2ccc(-c3cccc4[nH]nc(N)c34)cc2)c1 [Linifanib]
fractional inhibition over Bliss prediction (KOPN8; [2]): 0.19
fractional inhibition over Bliss prediction (KOPN8; [7]): 0.20

CC1(C)CNc2cc(NC(=O)c3cccnc3NCc3ccncc3)ccc21 [Motesanib]
fractional inhibition over Bliss prediction (KOPN8; [2]): 0.15
fractional inhibition over Bliss prediction (KOPN8; [7]): 0.11

Cc1ccc(Nc2nccc(N(C)c3ccc4c(C)n(C)nc4c3)n2)cc1S(N)(=O)=O [Pazopanib]
No. Cell Lines [1]: 3/4

O=C(O)c1ccc(Nc2ncc3c(n2)-c2ccc(Cl)cc2C(c2c(F)cccc2F)=NC3)cc1 [MLN8054]
fractional inhibition over Bliss prediction (KOPN8; [2]): KOPN8 (0.11)
fractional inhibition over Bliss prediction (MOLM14; [4]): MOLM14 (0.15),
No. Cell Lines [1]: 2/4

Cc1ccc(S(=O)(=O)OCC(=O)Nc2ccc(C(=O)O)c(O)c2)cc1 [S31-201]
fractional inhibition over Bliss prediction (KOPN8; [2]): KOPN8 (0.23)
fractional inhibition over Bliss prediction (KOPN8; [7]): KOPN8 (0.17)
fractional inhibition over Bliss prediction (MOLM14; [4]): MOLM14 (0.18),
fractional inhibition over Bliss prediction (MOLM14; [5]): MOLM14 (0.30),
No. Cell Lines [1]: 2/4

ABT-263
synergy with AS or ART-838 ([1]; screens in four human leukemia cell lines): Particularly strong synergy

Nc1ncnc2c1c(-c1cccc(OCc3ccccc3)c1)cn2C1CC(CN2CCCC2)C1 (stereo not drawn) [NVP-ADW742]
fractional inhibition over Bliss prediction (MOLM14; [4]): MOLM14 (0.17),
fractional inhibition over Bliss prediction (MOLM14; [5]): MOLM14 (0.20)
No. Cell Lines [1]: 2/4

COc1cc2nccc(Oc3ccc(NC(=O)Nc4cc(C)on4)c(Cl)c3)c2cc1OC [Tivozanib]
fractional inhibition over Bliss prediction (KOPN8; [2]): KOPN8 (0.22)
fractional inhibition over Bliss prediction (KOPN8; [7]): KOPN8 (0.11)
fractional inhibition over Bliss prediction (MOLM14; [5]): MOLM14 (0.20),
No. Cell Lines [1]: 2/4

CS(=O)(=O)N1CCN(Cc2cc3nc(-c4cccc5[nH]ncc45)nc(N4CCOCC4)c3s2)CC1 [Pictilisib]
fractional inhibition over Bliss prediction (KOPN8; [2]): 0.14
fractional inhibition over Bliss prediction (KOPN8; [7]): 0.12

O=c1ncn2nc(Sc3ccc(F)cc3F)ccc2c1-c1c(Cl)cccc1Cl [VX-745]
fractional inhibition over Bliss prediction (KOPN8; [2]): KOPN8 (0.14)
fractional inhibition over Bliss prediction (MOLM14; [5]): MOLM14 (0.11)
No. Cell Lines [1]: 2/4

C#Cc1cccc(Nc2ncnc3cc(OCCOC)c(OCCOC)cc23)c1 [Erlotinib]
No. Cell Lines [1]: 2/4

CCCCCCCCCCCCc1ccc(S(=O)(=O)Nc2nncs2)cc1 [PHT-427]
fractional inhibition over Bliss prediction (MOLM14; [4]): 0.20
fractional inhibition over Bliss prediction (MOLM14; [5]): 0.26

Cc1[nH]c(/C=C2\C(=O)Nc3ccc(S(=O)(=O)N(C)c4cccc(Cl)c4)cc32)c(C)c1C(=O)N1CCN(C)CC1 [SU11274]
fractional inhibition over Bliss prediction (KOPN8; [2]): KOPN8 (0.39)
fractional inhibition over Bliss prediction (KOPN8; [7]): KOPN8 (0.17)
fractional inhibition over Bliss prediction (MOLM14; [4]): MOLM14 (0.17),
fractional inhibition over Bliss prediction (MOLM14; [5]): MOLM14 (0.28),
No. Cell Lines [1]: 2/4

Cn1cnc2c(F)c(Nc3ccc(Br)cc3Cl)c(C(=O)NOCCO)cc21 [Selumetinib]
fractional inhibition over Bliss prediction (KOPN8; [2]): KOPN8 (0.19)
fractional inhibition over Bliss prediction (MOLM14; [4]): MOLM14 (0.15),
No. Cell Lines [1]: 2/4

Cc1ccc(NC(=O)c2ccc(CN3CCN(C)CC3)cc2)cc1Nc1nccc(-c2cccnc2)n1 [Imatinib]
No. Cell Lines [1]: 2/4

Cn1cc(-c2ccc3nnc(C(F)(F)c4ccc5ncccc5c4)n3n2)cn1 [JNJ-38877605]
fractional inhibition over Bliss prediction (KOPN8; [2]): KOPN8 (0.19)
fractional inhibition over Bliss prediction (KOPN8; [7]): KOPN8 (0.12)
fractional inhibition over Bliss prediction (MOLM14; [4]): MOLM14 (0.17),
fractional inhibition over Bliss prediction (MOLM14; [5]): MOLM14 (0.27),
No. Cell Lines [1]: 2/4

COc1ccc(COc2ccc(Cc3cnc(N)nc3N)cc2OC)cc1 [GW-2580]
fractional inhibition over Bliss prediction (KOPN8; [2]): KOPN8 (0.19)
fractional inhibition over Bliss prediction (KOPN8; [7]): KOPN8 (0.15)
fractional inhibition over Bliss prediction (MOLM14; [4]): MOLM14 (0.19),
fractional inhibition over Bliss prediction (MOLM14; [5]): 0.25 and 0.15
No. Cell Lines [1]: 2/4

O=S(=O)(NCCNC/C=C/c1ccc(Br)cc1)c1cccc2cnccc12 [H-89]
fractional inhibition over Bliss prediction (KOPN8; [2]): KOPN8 (0.10)
fractional inhibition over Bliss prediction (MOLM14; [4]): MOLM14 (0.13),
fractional inhibition over Bliss prediction (MOLM14; [5]): MOLM14 (0.21)
No. Cell Lines [1]: 2/4

NC(=O)c1ccc(-c2nc(-c3ccc4c(c3)OCO4)c(-c3ccccn3)[nH]2)cc1 [SB-431542]
fractional inhibition over Bliss prediction (MOLM14; [4]): 0.11
fractional inhibition over Bliss prediction (MOLM14; [5]): 0.16

CC(C)C[C@H](NC(=O)[C@H](Cc1ccccc1)NC(=O)c1cnccn1)B(O)O [Bortezomib]
No. Cell Lines [1]: 2/4

CCc1cc(Nc2nccc(-c3c(-c4ccc(OC)c(C(=O)Nc5c(F)cccc5F)c4)nc4ccccn34)n2)c(OC)cc1N1CCC(N2CCN(S(C)(=O)=O)CC2)CC1 [GSK-1904529A]
fractional inhibition over Bliss prediction (KOPN8; [2]): 0.24 and 0.16
fractional inhibition over Bliss prediction (KOPN8; [7]): KOPN8 (0.18),
fractional inhibition over Bliss prediction (RCH-ACV; [6]): RCH-ACV (0.14)
fractional inhibition over Bliss prediction (RCH-ACV; [3]): RCH-ACV (0.20)
fractional inhibition over Bliss prediction (MOLM14; [4]): 0.57 and 0.37
fractional inhibition over Bliss prediction (MOLM14; [5]): 0.30 and 0.27
No. Cell Lines [1]: 3/4

Cc1c[nH]c(-c2cnc(NCCNc3ccc(C#N)cn3)nc2-c2ccc(Cl)cc2Cl)n1 [CHIR-99021]
fractional inhibition over Bliss prediction (RCH-ACV; [3]): RCH-ACV (0.15)
fractional inhibition over Bliss prediction (MOLM14; [4]): MOLM14 (0.53)
No. Cell Lines [1]: 2/4

Oc1nc(-c2ccc(C(F)(F)F)cc2)nc2c1CSCC2 [XAV-939]
fractional inhibition over Bliss prediction (KOPN8; [2]): KOPN8 (0.18)
fractional inhibition over Bliss prediction (RCH-ACV; [3]): RCH-ACV (0.22)
fractional inhibition over Bliss prediction (MOLM14; [4]): MOLM14 (0.17),
No. Cell Lines [1]: 3/4

CC(=O)Nc1cccc(-n2c(=O)n(C3CC3)c(=O)c3c(Nc4ccc(I)cc4F)n(C)c(=O)c(C)c32)c1 [Trametinib]
fractional inhibition over Bliss prediction (KOPN8; [2]): 0.20
fractional inhibition over Bliss prediction (KOPN8; [7]): 0.20
